{
  "source": "paper PMC5897141",
  "about": "(Journal of neurochemistry, 2018)",
  "key": {"VAChT [1]": {"test_system": "VAChT", "type": "in vivo, cynomolgus macaques"}, "VAChT [2]": {"test_system": "VAChT", "settings": "Lassen plot, baseline vs (-)-vesamicol 0.125 mg/kg; subject A"}, "VAChT [3]": {"test_system": "VAChT", "experiment": "Test-retest reproducibility of BPND", "type": "in vivo, cynomolgus macaques", "settings": "mean ± SD, 3 NHP subjects"}, "σ1/2 receptors": {"test_system": "σ1/2 receptors", "settings": "ref Tu et al. 2015; cited from earlier work"}, "VAChT [4]": {"molecular_target": "VAChT", "settings": "ref Tu et al. 2015; cited from earlier work"}, "[5]": {"settings": "2TCM, white matter, mean ± SD, n = 3"}, "[6]": {"settings": "LoganAIF, striatum, mean ± SD, n = 3"}, "[7]": {"settings": "MA1, striatum, mean ± SD, n = 3"}, "[8]": {"settings": "RTM, reference cerebellum-hemispheres, striatum, mean ± SD, n = 7"}, "[9]": {"settings": "SRTM, reference cerebellum-hemispheres, striatum, mean ± SD, n = 7"}, "[10]": {"settings": "SRTM, frontal cortex, mean ± SD, n = 7"}, "[11]": {"settings": "SRTM, hippocampus, mean ± SD, n = 7"}, "[12]": {"settings": "SRTM, middle brain, mean ± SD, n = 7"}, "[13]": {"settings": "SRTM, occipital cortex, mean ± SD, n = 7"}, "[14]": {"settings": "SRTM, temporal cortex, mean ± SD, n = 7"}, "[15]": {"settings": "SRTM, thalamus, mean ± SD, n = 7"}, "[16]": {"settings": "SRTM, white matter, mean ± SD, n = 7"}},
  "note": "“And” between values parts separate entries of the source, which are not always exact repeats. Identical values can stand only once. Like-named read-outs stand apart in the source and are kept apart here.",
  "data": [
    {"smiles": "O=C(c1ccc(F)cc1)C1CCN(C2Cc3c(cccc3OCCF)CC2O)CC1", "note": "(single isomer, unassigned; (-)) [[^18F]VAT, ((-)-(1-(-8-(2-fluoroethoxy)-3-hydroxy-1,2,3,4-tetrahydronaphthalen-2-yl)piperidin-4-yl)(4-fluorophenyl)-methanone)]", "values": [
      {"measurement": "k2", "setting": "VAChT [1]; [5]", "value": "0.026 ± 0.005", "unit": "min⁻¹"},
      {"measurement": "k3", "setting": "VAChT [1]; [5]", "value": "0.006 ± 0.002", "unit": "min⁻¹"},
      {"measurement": "k3 / k4", "setting": "VAChT [1]; [5]", "value": "1.01 ± 0.32"},
      {"measurement": "k4", "setting": "VAChT [1]; [5]", "value": "0.006 ± 0.001", "unit": "min⁻¹"},
      {"measurement": "BPND", "setting": "VAChT [1]; [6]", "value": "2.58 ± 0.9 (20%)"},
      {"measurement": "DVR", "setting": "VAChT [1]; [6]", "value": "3.58 ± 0.9 (15%)"},
      {"measurement": "VT", "setting": "VAChT [1]; [6]", "value": "16.87 ± 17 (58%) mL· cm^−3"},
      {"measurement": "DVR", "setting": "VAChT [1]; LoganREF, reference cerebellum-hemispheres, striatum, mean ± SD, n = 7", "value": "3.11 ± 0.43 (5%)"},
      {"measurement": "BPND", "setting": "VAChT [1]; LoganREF, frontal cortex, mean ± SD, n = 7", "value": "0.29 ± 0.2"},
      {"measurement": "BPND", "setting": "VAChT [1]; LoganREF, hippocampus, mean ± SD, n = 7", "value": "0.47 ± 0.3"},
      {"measurement": "BPND", "setting": "VAChT [1]; LoganREF, middle brain, mean ± SD, n = 7", "value": "0.15 ± 0.2"},
      {"measurement": "BPND", "setting": "VAChT [1]; LoganREF, occipital cortex, mean ± SD, n = 7", "value": "0.13 ± 0.1"},
      {"measurement": "Striatal BPND", "setting": "VAChT [1]; LoganREF, scan duration for analysis 45 min, mean ± SD, n = 7", "value": "1.60 ± 0.58"},
      {"measurement": "Striatal BPND", "setting": "VAChT [1]; LoganREF, scan duration for analysis 60 min, mean ± SD, n = 7", "value": "1.69 ± 0.49"},
      {"measurement": "Striatal BPND", "setting": "VAChT [1]; LoganREF, scan duration for analysis 90 min, mean ± SD, n = 7", "value": "1.86 ± 0.45"},
      {"measurement": "BPND", "setting": "VAChT [1]; LoganREF, temporal cortex, mean ± SD, n = 7", "value": "0.11 ± 0.1"},
      {"measurement": "BPND", "setting": "VAChT [1]; LoganREF, thalamus, mean ± SD, n = 7", "value": "0.76 ± 0.3"},
      {"measurement": "BPND", "setting": "VAChT [1]; LoganREF, vermis, mean ± SD, n = 7", "value": "0.063 ± 0.2"},
      {"measurement": "BPND", "setting": "VAChT [1]; LoganREF, white matter, mean ± SD, n = 7", "value": "0.17 ± 0.2"},
      {"measurement": "BPND", "setting": "VAChT [1]; [7]", "value": "2.17 ± 1 (27%)"},
      {"measurement": "DVR", "setting": "VAChT [1]; [7]", "value": "3.17 ± 1 (18%)"},
      {"measurement": "VT", "setting": "VAChT [1]; [7]", "value": "21.45 ± 14 (38%) mL· cm^−3"},
      {"measurement": "BPND", "setting": "VAChT [1]; [8]", "value": "2.11 ± 0.46 (8%)"},
      {"measurement": "DVR", "setting": "VAChT [1]; [8]", "value": "3.11 ± 0.46 (6%)"},
      {"measurement": "R1 = K1/K1′", "setting": "VAChT [1]; [8]", "value": "( ^*** R1 = K1/K1′ 0.847 ± 0.08 (4%))"},
      {"measurement": "k2", "setting": "VAChT [1]; [8]", "value": "0.17 ± 0.16 (36%) min^−1"},
      {"measurement": "k3", "setting": "VAChT [1]; [8]", "value": "0.05 ± 0.04 (30%) min^−1"},
      {"measurement": "k4", "setting": "VAChT [1]; [8]", "value": "0.025 ± 0.02 (30%) min^−1"},
      {"measurement": "DVR", "setting": "VAChT [1]; [9]", "value": "3.15 ± 0.46 (6%)"},
      {"measurement": "k2", "setting": "VAChT [1]; [9]", "value": "0.032 ± 0.007 (8%) min^−1 and 0.032 ± 0.01 min^−1"},
      {"measurement": "BPND", "setting": "VAChT [1]; [10]", "value": "0.32 ± 0.2"},
      {"measurement": "R1", "setting": "VAChT [1]; [10]", "value": "0.82 ± 0.3"},
      {"measurement": "k2", "setting": "VAChT [1]; [10]", "value": "0.055 ± 0.02", "unit": "min⁻¹"},
      {"measurement": "BPND", "setting": "VAChT [1]; [11]", "value": "0.48 ± 0.2"},
      {"measurement": "R1", "setting": "VAChT [1]; [11]", "value": "0.79 ± 0.1"},
      {"measurement": "k2", "setting": "VAChT [1]; [11]", "value": "0.053 ± 0.04", "unit": "min⁻¹"},
      {"measurement": "BPND", "setting": "VAChT [1]; [12]", "value": "0.17 ± 0.1"},
      {"measurement": "R1", "setting": "VAChT [1]; [12]", "value": "0.74 ± 0.2"},
      {"measurement": "k2", "setting": "VAChT [1]; [12]", "value": "0.066 ± 0.1", "unit": "min⁻¹"},
      {"measurement": "BPND", "setting": "VAChT [1]; [13]", "value": "0.12 ± 0.1"},
      {"measurement": "R1", "setting": "VAChT [1]; [13]", "value": "0.81 ± 0.3"},
      {"measurement": "k2", "setting": "VAChT [1]; [13]", "value": "0.053 ± 0.02", "unit": "min⁻¹"},
      {"measurement": "Striatal BPND", "setting": "VAChT [1]; SRTM, scan duration for analysis 45 min, mean ± SD, n = 7", "value": "2.67 ± 1.14"},
      {"measurement": "Striatal BPND", "setting": "VAChT [1]; SRTM, scan duration for analysis 60 min, mean ± SD, n = 7", "value": "2.14 ± 0.49"},
      {"measurement": "Striatal BPND", "setting": "VAChT [1]; SRTM, scan duration for analysis 90 min, mean ± SD, n = 7", "value": "2.18 ± 0.37"},
      {"measurement": "BPND", "setting": "VAChT [1]; [14]", "value": "0.10 ± 0.08"},
      {"measurement": "R1", "setting": "VAChT [1]; [14]", "value": "0.63 ± 0.2"},
      {"measurement": "k2", "setting": "VAChT [1]; [14]", "value": "0.074 ± 0.07", "unit": "min⁻¹"},
      {"measurement": "BPND", "setting": "VAChT [1]; [15]", "value": "0.79 ± 0.3"},
      {"measurement": "R1", "setting": "VAChT [1]; [15]", "value": "0.95 ± 0.2"},
      {"measurement": "k2", "setting": "VAChT [1]; [15]", "value": "0.059 ± 0.02", "unit": "min⁻¹"},
      {"measurement": "BPND", "setting": "VAChT [1]; SRTM, vermis, mean ± SD, n = 7", "value": "0.081 ± 0.07"},
      {"measurement": "R1", "setting": "VAChT [1]; SRTM, vermis, mean ± SD, n = 7", "value": "1.08 ± 0.4"},
      {"measurement": "k2", "setting": "VAChT [1]; SRTM, vermis, mean ± SD, n = 7", "value": "0.064 ± 0.6", "unit": "min⁻¹"},
      {"measurement": "BPND", "setting": "VAChT [1]; [16]", "value": "0.17 ± 0.2"},
      {"measurement": "R1", "setting": "VAChT [1]; [16]", "value": "0.47 ± 0.1"},
      {"measurement": "k2", "setting": "VAChT [1]; [16]", "value": "0.032 ± 0.01", "unit": "min⁻¹"},
      {"measurement": "time of peak striatal uptake", "setting": "VAChT [1]; after tracer injection", "value": "about 20 min"},
      {"measurement": "VND (non-displaceable distribution volume)", "setting": "VAChT [2]", "value": "~ 1.27"},
      {"measurement": "retest BPND", "setting": "VAChT [3]; LoganREF, frontal cortex", "value": "0.29 ± 0.08"},
      {"measurement": "test BPND", "setting": "VAChT [3]; LoganREF, frontal cortex", "value": "0.29 ± 0.06"},
      {"measurement": "retest BPND", "setting": "VAChT [3]; LoganREF, hippocampus", "value": "0.47 ± 0.19"},
      {"measurement": "test BPND", "setting": "VAChT [3]; LoganREF, hippocampus", "value": "0.46 ± 0.18"},
      {"measurement": "retest BPND", "setting": "VAChT [3]; LoganREF, striatum", "value": "2.26 ± 0.46"},
      {"measurement": "test BPND", "setting": "VAChT [3]; LoganREF, striatum", "value": "2.39 ± 0.73"},
      {"measurement": "retest BPND", "setting": "VAChT [3]; LoganREF, thalamus", "value": "0.74 ± 0.09"},
      {"measurement": "test BPND", "setting": "VAChT [3]; LoganREF, thalamus", "value": "0.70 ± 0.10"},
      {"measurement": "retest BPND", "setting": "VAChT [3]; SRTM, frontal cortex", "value": "0.30 ± 0.03"},
      {"measurement": "test BPND", "setting": "VAChT [3]; SRTM, frontal cortex", "value": "0.32 ± 0.07"},
      {"measurement": "retest BPND", "setting": "VAChT [3]; SRTM, hippocampus", "value": "0.48 ± 0.14"},
      {"measurement": "test BPND", "setting": "VAChT [3]; SRTM, hippocampus", "value": "0.46 ± 0.16"},
      {"measurement": "retest BPND", "setting": "VAChT [3]; SRTM, striatum", "value": "2.15 ± 0.38"},
      {"measurement": "test BPND", "setting": "VAChT [3]; SRTM, striatum", "value": "2.38 ± 0.69"},
      {"measurement": "retest BPND", "setting": "VAChT [3]; SRTM, thalamus", "value": "0.77 ± 0.12"},
      {"measurement": "test BPND", "setting": "VAChT [3]; SRTM, thalamus", "value": "0.77 ± 0.13"},
      {"measurement": "selectivity for VAChT versus σ1/2 receptors", "setting": "σ1/2 receptors", "value": "over 10,000 fold"},
      {"measurement": "Ki", "setting": "VAChT [4]", "value": 0.59, "unit": "nM"}
    ]}
  ]
}
